# According to the supplement of paper PMC13380429:
# Assays:
# Conditions in all cases: 72 h
# [1] = tested on: HepG2; assay: drug sensitivity score (DSS) for viability; higher = more toxic; extreme values may be limits of the assay
# [2] = tested on: Caco-2; assay: as above
# [3] = tested on: U2OS; assay: as above
# [4] = tested on: Calu-3; assay: as above
# [5] = tested on: Vero E6; assay: as above
# [6] = tested on: HepG2; assay: cell viability relative to DMSO; higher = less toxic
# [7] = tested on: Caco-2; assay: as above
# [8] = tested on: U2OS; assay: as above
# [9] = tested on: Calu-3; assay: as above
# [10] = tested on: Vero E6; assay: as above
# [11] = tested on: HepG2; assay: relative viability EC50 (midpoint between 100% and the lowest measured viability); higher = less toxic
# [12] = tested on: Caco-2; assay: as above
# [13] = tested on: U2OS; assay: as above
# [14] = tested on: Calu-3; assay: as above
# [15] = tested on: Vero E6; assay: as above
Structure (SMILES),drug sensitivity score [1],drug sensitivity score [2],drug sensitivity score [3],drug sensitivity score [4],drug sensitivity score [5],cell viability ([6]; 1 nM),cell viability ([6]; 10 nM),cell viability ([6]; 100 nM),cell viability ([6]; 1000 nM),cell viability ([6]; 10000 nM),cell viability ([7]; 1 nM),cell viability ([7]; 10 nM),cell viability ([7]; 100 nM),cell viability ([7]; 1000 nM),cell viability ([7]; 10000 nM),cell viability ([8]; 1 nM),cell viability ([8]; 10 nM),cell viability ([8]; 100 nM),cell viability ([8]; 1000 nM),cell viability ([8]; 10000 nM),cell viability ([9]; 1 nM),cell viability ([9]; 10 nM),cell viability ([9]; 100 nM),cell viability ([9]; 1000 nM),cell viability ([9]; 10000 nM),cell viability ([10]; 1 nM),cell viability ([10]; 10 nM),cell viability ([10]; 100 nM),cell viability ([10]; 1000 nM),cell viability ([10]; 10000 nM),relative viability EC50 [11],relative viability EC50 [12],relative viability EC50 [13],relative viability EC50 [14],relative viability EC50 [15]
COc1ccc(CNCc2cccc3ccccc23)cc1 [ML133],0,0,0,0,0,97.8%,108%,101%,110%,112%,92.5%,95.6%,98.5%,99.9%,88.3%,104%,94.9%,100%,98.9%,97.5%,101%,101%,102%,104%,94.6%,91.2%,100%,94.1%,99%,101%,> 10 µM,> 10 µM,> 10 µM,> 10 µM,> 10 µM
CCCC(=O)Nc1cccc(NC(=O)c2ccccc2Br)c1 [ML161],0,0,0,0,0,91.6%,98%,94.9%,94.2%,103%,93.6%,95.5%,89.6%,96.6%,94%,95.3%,97.7%,95.8%,98.8%,94.2%,95.4%,101%,89.2%,101%,105%,100%,96.1%,103%,98.9%,97.7%,> 10 µM,> 10 µM,> 10 µM,> 10 µM,> 10 µM
CC(=O)N[C@H]1[C@@H](O)[C@H](O)[C@@H](CO)O[C@@H]1O [N-acetylmannosamine],0,0,0,0,0,108%,96.7%,110%,105%,100%,102%,99.6%,100%,107%,104%,95.6%,101%,105%,103%,105%,106%,100%,94.7%,102%,111%,97%,95.9%,92.1%,92.8%,108%,> 10 µM,> 10 µM,> 10 µM,> 10 µM,> 10 µM
O[C@@H](C[C@H]1c2ccccc2-c2cncn21)C1CCCCC1 [NLG919],0,0.4,0,0.1,0.7,108%,95.9%,102%,93.5%,94.1%,97.6%,97%,102%,95.8%,86.3%,93.1%,93%,94%,96.7%,90.7%,106%,111%,92.7%,105%,85.6%,97.3%,98.5%,93.3%,89.8%,84.2%,> 10 µM,> 10 µM,> 10 µM,> 10 µM,> 10 µM
CC(C)[C@H]1c2ccc(F)cc2CC[C@@]1(CCN(C)CCCc1nc2ccccc2[nH]1)OC(=O)C1CC1 [NNC-55-0396],6,5.7,5.8,5.5,7.3,109%,104%,98.7%,96.8%,0%,85.5%,102%,93.6%,97.2%,4.5%,98.9%,99.1%,94.4%,97.2%,2.8%,106%,105%,100%,99.7%,2.2%,95.2%,96.1%,93.5%,89.4%,-0.1%,2.93 µM,2.95 µM,2.96 µM,3.14 µM,2.29 µM
COc1ccc(COc2ccc(CC#N)cc2)cc1 [O4I1],0,0,0,0,0.2,100%,97%,98.6%,95.4%,94.7%,94.7%,93.9%,96.3%,92.9%,92.2%,102%,106%,96.2%,104%,95.4%,104%,93.3%,103%,89.4%,102%,100%,99.4%,99.1%,95%,87.4%,> 10 µM,> 10 µM,> 10 µM,> 10 µM,> 10 µM
O=C(CCN1CCN(C(=O)OCc2cc(Cl)cc(Cl)c2)CC1)c1ccc2[nH]c(=O)oc2c1 [PF-8380],0,0,0,0,0,99.6%,96.3%,93.4%,105%,97.3%,94.8%,101%,91.2%,98.1%,94.9%,98.5%,101%,97.9%,95.6%,101%,97.5%,101%,94.5%,99.5%,113%,106%,110%,104%,103%,92.7%,> 10 µM,> 10 µM,> 10 µM,> 10 µM,> 10 µM
CC(C)OC(=O)[C@H](C)N[P@@](=O)(OC[C@H]1O[C@@H](n2ccc(=O)[nH]c2=O)[C@](C)(F)[C@@H]1O)Oc1ccccc1 [PSI-7976],0,0,0,0,0,89.5%,103%,92.6%,109%,113%,105%,88.7%,103%,90.2%,101%,98.2%,93.6%,101%,99%,96.8%,104%,85.4%,96.7%,93.3%,94.2%,95.2%,101%,91.4%,99%,108%,> 10 µM,> 10 µM,> 10 µM,> 10 µM,> 10 µM
COc1cc(CN2CCN(c3ccc(F)cc3)CC2)cc(OC)c1OC [V-51],0,0,0,0,0,100%,98.1%,93.2%,100%,98.8%,94.8%,94.4%,93.6%,83.5%,97.8%,100%,103%,94.8%,98.6%,102%,81.8%,95.7%,106%,105%,105%,95.9%,96.5%,100%,98.3%,106%,> 10 µM,> 10 µM,> 10 µM,> 10 µM,> 10 µM
CO[C@H]1CC[C@H](N(c2cc(C3=CCCCC3)sc2C(=O)O)C(=O)[C@H]2CC[C@H](C)CC2)CC1 [VCH-916],0,0,0,0,0,103%,92.8%,110%,110%,114%,92.2%,93.4%,105%,95.5%,105%,96.2%,98.7%,98.6%,98.6%,101%,90.8%,110%,107%,97.5%,104%,96.9%,95.7%,98.8%,103%,110%,> 10 µM,> 10 µM,> 10 µM,> 10 µM,> 10 µM
CCC(=O)NO [ZAMI-633],0.9,0,0,0,0.1,110%,97%,104%,90.6%,85.1%,100%,96.7%,93.4%,96.8%,127%,97.5%,97.9%,92.8%,93.3%,105%,101%,102%,94.2%,93.6%,97.2%,110%,95%,109%,97.1%,89%,> 10 µM,> 10 µM,> 10 µM,> 10 µM,> 10 µM
O=C(C[S+]([O-])C(c1ccccc1)c1ccccc1)NO (stereo not given) [adrafinil],0,0,0,0,0,97.6%,88.7%,97.2%,96.1%,102%,93.8%,91.1%,91.6%,103%,101%,97.9%,102%,97.9%,107%,99.8%,103%,110%,98.4%,107%,108%,93.5%,85.5%,93.8%,93%,107%,> 10 µM,> 10 µM,> 10 µM,> 10 µM,> 10 µM
CC[C@H]1[C@@H]2C[C@H]3[C@@H]4N(C)c5ccccc5[C@]45C[C@@H]([C@@H]2[C@H]5O)N3[C@@H]1O [ajmaline],0,0.1,0,0,0,92%,90%,95%,105%,94.7%,101%,94%,94.9%,90.6%,88%,96%,101%,95.7%,102%,97.5%,101%,108%,91.9%,104%,108%,96.1%,95%,105%,99.5%,88.9%,> 10 µM,> 10 µM,> 10 µM,> 10 µM,> 10 µM
CNC(=O)c1ccc(N2C(=S)N(c3cnc(C#N)c(C(F)(F)F)c3)C(=O)C23CCC3)cc1F [apalutamide],0,0,0,0,0,99.5%,107%,112%,109%,104%,104%,107%,94.1%,90.6%,93.5%,98%,98.6%,96.7%,97.7%,96.9%,106%,103%,103%,102%,97.1%,104%,107%,99.3%,105%,98.8%,> 10 µM,> 10 µM,> 10 µM,> 10 µM,> 10 µM
